# US20180289702A1, “LPA LEVEL REDUCTION FOR TREATING CENTRAL NERVOUS SYSTEM DISORDERS” (priority 2015, published 2018)
# Key:
# PRG1−/− mice = assay: simultaneous in-vivo recordings of MEC and hippocampal CA1 in freely moving mice
# Procedure: Electrophysiological measurements in freely moving animals were performed as described (O'Neill PK et al. 2013). Briefly, animals were kept during surgical procedures under isoflurane anesthesia and electrodes (WE3PT10.5F3, MicroProbes, Gaithersburg, Md., USA) were chronically implanted in the medial entorhinal cortex (MEC; 3.1 mm, lateral to the midline, 0.2 mm anterior to the transverse sinus at an angle of 6° in the anterior-to-posterior direction in the sagittal plane) and in the hippocampal CA1-region (1.5 mm lateral to the midline, 1.5 mm anterior-to-posterior and 1.2 mm dorsal-to-ventral at an angle of 0°). The electrodes were connected to an electrode interface board (EIB-16; Neuralynx, USA) and were secured to the skull using jewelers screws and dental cement. Neural data was acquired using a 16-channel head stage and a Digital Lynx data acquisition system (Neuralynx, USA). The animal's position was monitored using two light-emitting diodes mounted on the head stage. To extract local field potentials, the neural signals were bandpass filtered between 1 and 1000 Hz and digitized at 2 kHz. Separate recordings, each lasting 10 minutes, were made while animals moved freely in their home cage in an open field (0.5 m×0.5 m×0.5 m) and in a plus-maze with a length of 0.4 m per arm. Recordings were repeated for two days. Analysis of neural and behavioral data was performed using custom-written MATLAB scripts (MathWorks). Recording location was verified by current application at the end of the experiment after which animals were perfused, and the brains were cut on a vibratome and Nissl stained using cresyl violet.
# Coherence of neuronal activity between the MEC and in the CA1 was computed using the multitaper method (MATLAB routines provided by K. Harris, University College London, London, UK, and G. Buzsáki, New York University, New York, N.Y., USA). […] Power was calculated by taking the absolute value of the wavelet transform and averaged across time to obtain the power spectrum. […]
# mice [1] = assay: food intake after overnight food deprivation; assay type: in vivo
# Excerpt: Metabolic alterations like overnight fasting induce changes in LPA subtype composition (Ino M et al. 2012). This correlates with the increased activity of ATX after overnight food deprivation, the availability of the ATX substrate LPC but also with the substrate preferences of ATX for unsaturated LPCs. In order to understand the cortical effects of altered LPA-composition upon fasting, the inventors analyzed food consumption after overnight food deprivation in control and PF8380-treated animals. […] However, overnight food deprivation was not related to hyperlocomotion since travelled distance in an open field setting was not different between control, overnight food deprived and PF-treated overnight food deprived animals (FIG. 19B).
# wild type (WT) animals = assay: mEPSC recordings with PF8380, wild type; assay type: cell-based, mice
# [2] = tested on: hippocampal slices from PRG-1 KO mice; assay: evoked EPSCs in hippocampal slices; assay type: cell-based
# mice [3] = assay: open field locomotion of food deprived animals; assay type: in vivo; details: OF 10 min; controls, food deprived controls and food deprived animals treated with PF8380
# [4] = tested on: LPA species (LPA 16:0, 18:1, 18:2); assay: LPA species in cerebrospinal fluid (LC-ESI-MS/MS); assay type: in vivo; details: PRG-1 Ko mice, intraperitoneal injection
# Procedure: LPA analysis was performed with liquid chromatography-electrospray ionization-tandem mass spectrometry (LC-ESI-MS/MS). The LC-MS/MS system consisted in a hybrid triple quadrupole-ion trap QTrap 5500 mass spectrometer (AB Sciex, Germany) equipped with a Turbo-V-source operating in negative ESI mode, an Agilent 1200 binary HPLC pump, column oven (40° C.) and degasser and an HTC Pal autosampler.
# Two cycles of […] extraction of LPAs were done with 1-buthanol after adding the internal standard LPA17:0 to the sample (50 μl sample, 20 μl internal standard in 500 μl 1-butanol). The combined organic phases were dried under a gentle stream of nitrogen at 45° C. and subsequently re-dissolved in 200 μl methanol.
# For the chromatographic separation a C18 column (Mercury 20×2 mm, 3 μm, 100 Å) and precolumn were used (Phenomenex, Germany). A linear gradient was employed at 400 μl/min. Mobile phase A was water with ammonium formate 50 mM and formic acid (100:0.2, v/v) and mobile phase B acetonitrile/formic acid (100:0.1, v/v), total run time 7 min, injection volume 20 μl. The mass spectrometer operated in the negative ion mode with an electrospray voltage of −4500 V at 350° C. Multiple reaction monitoring (MRM) was used for quantification. […] Quantitation was performed with Analyst Software V1.5 (Applied Biosystems) using the internal standard method with 1/concentration^2 weighting. […]
# [5] = tested on: animal model of schizophrenia induced by ketamine; assay: ketamine-induced animal model of schizophrenia: PPI and open field hyperactivity; assay type: in vivo, mice
# Excerpt: In order to correlate these electrophysiological effects with behavior in these mice, the inventors first analyzed PPI after ketamine application. […] In sum, ATX-inhibition has the general potential to normalize E/I balance in psychiatric disorders associated with increased glutamatergic input and opens a new therapeutic avenue towards treatment of psychiatric disorders.
compound,measurement,setting,value
"O=C(CCN1CCN(C(=O)OCc2cc(Cl)cc(Cl)c2)CC1)c1ccc2[nH]c(=O)oc2c1 [PF8380, 4-[3-(2,3-Dihydro-2-oxo-6-benzoxazolyl)-3-oxopropyl]-1-piperazinecarboxylic acid (3,5-dichlorophenyl)methyl ester]",gamma coherence between MEC and CA1,PRG1−/− mice; PF8380 treated PRG1−/− mice,reduced to WT levels
same,peak frequency of theta coherence between MEC and CA1,PRG1−/− mice; PF8380 treated PRG1−/− mice compared with WT mice,lower
same,average movement speed during exploratory behavior in the open field,"PRG1−/− mice; wild type, untreated and PF8380-treated PRG-1−/− mice",no difference
same,food intake,mice [1]; control mice (not food deprived),does not alter
same,food intake,"mice [1]; overnight food deprived animals, within 60 min",significantly decreased
same,mEPSC amplitudes,wild type (WT) animals,did not affect
same,mEPSC frequency,wild type (WT) animals,did not affect
same,PPR,[2],increased
same,"evoked potentials (eEPSC, first stimulus)",[2],significantly affected
same,second stimulus applied at an interval of 50 ms,[2],did not alter
same,"locomotion in the open field, total distance",mice [3],did not display significant differences
same,"main LPA species (LPA 16:0, 18:1, 18:2) in CSF",[4],significant decrease
same,PPI,[5],rescued to WT values
same,hyperactivity following ketamine application in an open field setting,[5],significantly reduced
